Test [1] is filed under the species Rattus norvegicus. Briefly: Activation of Sprague-Dawley rat soluble guanylate cyclase after 10 mins relative to GTN.
Test [2] in a line: Activation of Sprague-Dawley rat soluble guanylate cyclase after 10 mins.
Test [3] is filed under the species Rattus norvegicus. Briefly: Activation of Sprague-Dawley rat soluble guanylate cyclase after 10 mins in presence of cysteine relative to GTN.
The species named for test [4] is Rattus norvegicus. The test can be described thus: (§1) Activation of Sprague-Dawley rat soluble guanylate cyclase after 10 mins in presence of cysteine.
Test [5] is described as follows: as §1.
The target of test [6] is Soluble guanylate cyclase (Homo sapiens) (UniProt Q02153+O75343+P33402+Q02108). Briefly: Activation of soluble guanylate cyclase (unknown origin) assessed as apparent initial rate of oxidation of oxyhemoglobin in presence of cysteine relative to GTN. It is filed as protein-complex assay.

Consider seven compounds from ChEMBL document CHEMBL3217567, “Differential activation of soluble guanylate cyclase by a series of aryl disulfanyl dinitrate esters” (Medchemcomm, 2014).

For the compound `Cc1ccc(SSCC(CO[N+](=O)[O-])O[N+](=O)[O-])cc1` (stereo not drawn), the Efficacy in test [1] was found to be 114%. The compound also showed an EC50 in test [2] of 170 µM. In addition, the Emax in test [3] was determined as 279%. Also, the Activity entry in test [4] is “Dose-dependent effect”.
Regarding `O=[N+]([O-])OCC(CSSc1ccccc1)O[N+](=O)[O-]` (stereo not drawn), the maximal response (Emax) in test [3] came out at 201%. The Activity entry in test [4] is “Dose-dependent effect”.
Turning to `O=[N+]([O-])OCC(CSSc1ccc(F)cc1)O[N+](=O)[O-]` (stereo not drawn), the Emax in test [3] turned out to be 192%. Further, the Activity entry in test [4] is “Dose-dependent effect”.
The compound `O=[N+]([O-])OCC(CSSc1ccc(Br)cc1)O[N+](=O)[O-]` (stereo not drawn) showed an Efficacy in test [1] of 60%. The response in test [2] was half-maximal at 40 µM (EC50). For the same compound, the Emax in test [3] amounted to 218%. The Activity result in test [4] was “Dose-dependent effect”.
Regarding `O=[N+]([O-])OCC(CSSc1ccc(Cl)cc1)O[N+](=O)[O-]` (stereo not drawn), in test [3], the maximal response (Emax) was determined as 195%. Moreover, the Activity entry in test [4] is “Dose-dependent effect”.
As to `O=[N+]([O-])OCC(CO[N+](=O)[O-])O[N+](=O)[O-]` [NITROGLYCERIN], the 50% effective concentration (EC50) in test [5] was determined as 200 µM.
On to `COc1ccc(SSCC(CO[N+](=O)[O-])O[N+](=O)[O-])cc1` (stereo not drawn), for which the Ratio in test [6] came to 2. In addition, the Emax in test [3] amounted to 245%. In addition, in test [4], the Activity result is “Dose-dependent effect”.
